According to US3992371A, “Penicillins substituted with heterocyclic and substituted phenyl groups” (Sumitomo Chemical Company, Limited, priority 1973, dated 1976):
Converted amounts (≈) assume the structure as drawn.

Assays:
Experiment in all cases: Minimal inhibitory concentration, agar dilution method
Type in all cases: cell-based
[1] = system: Escherichia coli NIHJ
Text: (§1) When determined according to the agar dilution method, the penicillins (I) afford the minimal inhibitory concentrations against test microorganisms as shown in Table 2.

[2] = system: Klebsiella pneumoniae PCI602
Text: as §1

[3] = system: Pseudomonas aeruginosa 104
Text: as §1

[4] = system: Staphylococcus aureus 209P
Text: as §1

[5] = system: Proteus miravilis GN2425
[6] = system: Proteus vulgaris HV19

Compound	MIC [1]	MIC [2]	MIC [3]	MIC [4]	MIC [5]	MIC [6]
CC1(C)SC2C(NC(=O)C(NC(=O)c3nc4ccccc4nc3O)c3cccc(F)c3)C(=O)N2C1C(=O)O (stereo not drawn) [Example 48]	3.13 µg/mL (≈ 5.8 µM)	12.5 µg/mL (≈ 23.2 µM)	1.56 µg/mL (≈ 2.89 µM)	0.78 µg/mL (≈ 1.45 µM)	12.5 µg/mL (≈ 23.2 µM)	0.2 µg/mL (≈ 0.371 µM)
CC1(C)SC2C(NC(=O)C(NC(=O)c3cnc4cc5c(cc4c3O)OCC5)c3cccc(N)c3)C(=O)N2C1C(=O)O (stereo not drawn) [Example 49]	3.13 µg/mL (≈ 5.42 µM)	6.25 µg/mL (≈ 10.8 µM)	3.13 µg/mL (≈ 5.42 µM)	0.78 µg/mL (≈ 1.35 µM)	3.13 µg/mL (≈ 5.42 µM)	0.2 µg/mL (≈ 0.346 µM)
CC1(C)SC2C(NC(=O)C(NC(=O)c3cnc4c5c(ccc4c3O)CCC5)c3cccc(N)c3)C(=O)N2C1C(=O)O (stereo not drawn) [Example 50]	3.13 µg/mL (≈ 5.44 µM)	12.5 µg/mL (≈ 21.7 µM)	3.13 µg/mL (≈ 5.44 µM)	0.78 µg/mL (≈ 1.35 µM)	12.5 µg/mL (≈ 21.7 µM)	0.39 µg/mL (≈ 0.677 µM)
CSc1nc2ccc3ncc(C(=O)NC(C(=O)NC4C(=O)N5C4SC(C)(C)C5C(=O)O)c4cccc(N)c4)c(O)c3c2s1 (stereo not drawn) [Example 51]	3.13 µg/mL (≈ 4.9 µM)	6.25 µg/mL (≈ 9.78 µM)	3.13 µg/mL (≈ 4.9 µM)	0.78 µg/mL (≈ 1.22 µM)	3.13 µg/mL (≈ 4.9 µM)	0.2 µg/mL (≈ 0.313 µM)
CC1(C)SC2C(NC(=O)C(NC(=O)c3cnc4ccc(N5CCCC5)nc4c3O)c3ccc(N)cc3)C(=O)N2C1C(=O)O (stereo not drawn) [Example 52]	0.78 µg/mL (≈ 1.29 µM)	6.25 µg/mL (≈ 10.3 µM)	1.56 µg/mL (≈ 2.58 µM)	1.56 µg/mL (≈ 2.58 µM)	1.56 µg/mL (≈ 2.58 µM)	0.05 µg/mL (≈ 0.0826 µM)
CC1(C)SC2C(NC(=O)C(NC(=O)c3cnc4nc(N5CCCC5)ncc4c3O)c3cccc(N)c3)C(=O)N2C1C(=O)O (stereo not drawn) [Example 53]	3.13 µg/mL (≈ 5.16 µM)	6.25 µg/mL (≈ 10.3 µM)	3.13 µg/mL (≈ 5.16 µM)	1.56 µg/mL (≈ 2.57 µM)	3.13 µg/mL (≈ 5.16 µM)	0.025 µg/mL (≈ 0.0412 µM)
CC1(C)SC2C(NC(=O)C(NC(=O)c3cnc4nc(N5CCOCC5)ncc4c3O)c3ccc(N)cc3)C(=O)N2C1C(=O)O (stereo not drawn) [Example 54]	3.13 µg/mL (≈ 5.03 µM)	6.25 µg/mL (≈ 10 µM)	3.13 µg/mL (≈ 5.03 µM)	1.56 µg/mL (≈ 2.51 µM)	3.13 µg/mL (≈ 5.03 µM)	0.05 µg/mL (≈ 0.0803 µM)
CCNc1ccc2ncc(C(=O)NC(C(=O)NC3C(=O)N4C3SC(C)(C)C4C(=O)O)c3cccc(N)c3)c(O)c2n1 (stereo not drawn) [Example 55]	0.78 µg/mL (≈ 1.35 µM)	6.25 µg/mL (≈ 10.8 µM)	1.56 µg/mL (≈ 2.69 µM)	1.56 µg/mL (≈ 2.69 µM)	0.78 µg/mL (≈ 1.35 µM)	0.025 µg/mL (≈ 0.0431 µM)
Cc1nc(O)c2c(O)c(C(=O)NC(C(=O)NC3C(=O)N4C3SC(C)(C)C4C(=O)O)c3cccc(N)c3)cnc2n1 (stereo not drawn) [Example 56]	1.56 µg/mL (≈ 2.75 µM)	6.25 µg/mL (≈ 11 µM)	3.13 µg/mL (≈ 5.51 µM)	1.56 µg/mL (≈ 2.75 µM)	3.13 µg/mL (≈ 5.51 µM)	0.05 µg/mL (≈ 0.0881 µM)
COc1nc(OC)c2ncc(C(=O)NC(C(=O)NC3C(=O)N4C3SC(C)(C)C4C(=O)O)c3cccc(N)c3)c(O)c2n1 (stereo not drawn) [Example 57]	0.78 µg/mL (≈ 1.31 µM)	6.25 µg/mL (≈ 10.5 µM)	1.56 µg/mL (≈ 2.61 µM)	1.56 µg/mL (≈ 2.61 µM)	1.56 µg/mL (≈ 2.61 µM)	0.025 µg/mL (≈ 0.0418 µM)
Cc1ncc2c(O)c(C(=O)NC(C(=O)NC3C(=O)N4C3SC(C)(C)C4C(=O)O)c3cccc(N)c3)cnc2n1 (stereo not drawn) [Example 58]	1.56 µg/mL (≈ 2.83 µM)	12.5 µg/mL (≈ 22.7 µM)	3.13 µg/mL (≈ 5.67 µM)	1.56 µg/mL (≈ 2.83 µM)	3.13 µg/mL (≈ 5.67 µM)	0.05 µg/mL (≈ 0.0906 µM)
CCn1ncc2c(O)c(C(=O)NC(C(=O)NC3C(=O)N4C3SC(C)(C)C4C(=O)O)c3ccc(N)cc3)cnc21 (stereo not drawn) [Example 59]	3.13 µg/mL (≈ 5.65 µM)	12.5 µg/mL (≈ 22.6 µM)	1.56 µg/mL (≈ 2.82 µM)	0.78 µg/mL (≈ 1.41 µM)	6.25 µg/mL (≈ 11.3 µM)	0.1 µg/mL (≈ 0.181 µM)
Cc1cc(C(NC(=O)c2cnc3cccnc3c2O)C(=O)NC2C(=O)N3C2SC(C)(C)C3C(=O)O)ccc1O (stereo not drawn) [Example 60]	0.78 µg/mL (≈ 1.41 µM)	6.25 µg/mL (≈ 11.3 µM)	1.56 µg/mL (≈ 2.83 µM)	0.78 µg/mL (≈ 1.41 µM)	1.56 µg/mL (≈ 2.83 µM)	0.05 µg/mL (≈ 0.0906 µM)
CC1(C)SC2C(NC(=O)C(NC(=O)c3cnc4cccnc4c3O)c3ccc(O)c(O)c3)C(=O)N2C1C(=O)O (stereo not drawn) [Example 61]	0.78 µg/mL (≈ 1.41 µM)	12.5 µg/mL (≈ 22.6 µM)	1.56 µg/mL (≈ 2.82 µM)	0.78 µg/mL (≈ 1.41 µM)	1.56 µg/mL (≈ 2.82 µM)	0.025 µg/mL (≈ 0.0452 µM)
CC1(C)SC2C(NC(=O)C(NC(=O)c3cnc4cccnc4c3O)c3ccc(O)c([N+](=O)[O-])c3)C(=O)N2C1C(=O)O (stereo not drawn) [Example 62]	1.56 µg/mL (≈ 2.68 µM)	12.5 µg/mL (≈ 21.5 µM)	1.56 µg/mL (≈ 2.68 µM)	1.56 µg/mL (≈ 2.68 µM)	3.13 µg/mL (≈ 5.37 µM)	0.05 µg/mL (≈ 0.0858 µM)
CC1(C)SC2C(NC(=O)C(NC(=O)c3cnc4cccnc4c3O)c3ccc(O)c(N)c3)C(=O)N2C1C(=O)O (stereo not drawn) [Example 63]	0.78 µg/mL (≈ 1.41 µM)	6.25 µg/mL (≈ 11.3 µM)	1.56 µg/mL (≈ 2.82 µM)	0.78 µg/mL (≈ 1.41 µM)	1.56 µg/mL (≈ 2.82 µM)	0.025 µg/mL (≈ 0.0452 µM)
COc1cc(C(NC(=O)c2cnc3cccnc3c2O)C(=O)NC2C(=O)N3C2SC(C)(C)C3C(=O)O)ccc1O (stereo not drawn) [Example 64]	3.13 µg/mL (≈ 5.51 µM)	12.5 µg/mL (≈ 22 µM)	1.56 µg/mL (≈ 2.75 µM)	1.56 µg/mL (≈ 2.75 µM)	3.13 µg/mL (≈ 5.51 µM)	0.05 µg/mL (≈ 0.0881 µM)
